Data on ten compounds can be found in US5756145A, “Durable, Resilient and effective antimicrobial coating for medical devices and method of coating therefor” (priority 1995, dated 1998).

The subject of data set [1] is bacterial and fungal organisms. Particulars: cited from earlier work; for spectrum of antimicrobial activity / bacteriostatic/bactericidal nature: general statement; for effect of organic matter on effectiveness: organic matter such as blood.
The test system of data set [2] is Candida albicans. Description: zones of inhibition on agar plates, Candida albicans (Examples 1, 2, 5, 7). Particulars: Init., triple layer, Table 7.
Method: (§1) Selected single layer and triple layer coated cylinders were then placed on agar plates that had been freshly overlaid with one of the microorganisms shown below in Table 1.
(§2) The coated cylinders were then removed from the serum and placed on agar plates that had been freshly overlaid with one of the microorganisms shown below in Table 2.
(§3) The devices and coating solution were preheated to 45° C. After coating the devices were allowed to dry for about four hours. […] The devices were then allowed to dry for an additional two hours. The resilient coated layer was applied over the durable coated layer by dipping the devices for approximately 5-10 seconds in a collodion solution. The devices were then allowed to dry for an additional two hours. Selected coated devices were then incubated in human serum at 37° C. for one and three weeks.
The next data set has as its system Pseud. aeruginosa. In words: zones of inhibition on agar plates, Pseud. aeruginosa (Examples 1, 2, 5, 7). Particulars: P. aerug, Init., triple layer, Table 7.
The test system of the next data set is Staph. epidermidis. Description: zones of inhibition on agar plates, Staph. epidermidis (Examples 1, 2, 5, 7). Particulars: S. epidermidis, Init., triple layer, Table 7.
Another data set concerns protein synthesis. Particulars: general statement; cited from earlier work.
The conditions of data set [3]: cited from earlier work; for solubility in organic solvents: organic solvents/solutions.
In another data set the test system is Staphylococcus aureus. Conditions: cited from earlier work.
The test system of another data set is Escherichia coli. Particulars: cited from earlier work.
The test system of another data set is Pseudomonas aeruginosa. Conditions: cited from earlier work.
Data set [4] relates to Candida albicans. Particulars: cited from earlier work.
The conditions of data set [5]: light; cited from earlier work.
Data set [6] concerns bacterial DNA-dependent RNA polymerase. Particulars: general statement; cited from earlier work.

Counter-ions that a name gives are not always drawn.

Method for Pseud. aeruginosa: as §1, §2, §3
Method for Staph. epidermidis: as §1, §2, §3

Turning to `Cc1cc(O)cc(C)c1Cl` [Chloroxylenol, 4-chloro, 3,5-dimethyl phenol], the “spectrum of antimicrobial activity” value in [1] is “good antimicrobial activity against gram-positive bacteria and fungi, and fair activity against gram-negative bacteria”. The “effect of organic matter on effectiveness” value in [1] is recorded as “minimally affected by organic matter”. For the same compound, the Zones of inhibition is 28 m.m in the data set on Candida albicans [2], 13 m.m in the data set with Pseud. aeruginosa and 32 m.m in the data set on Staph. epidermidis.
Turning to `CC1=CCC(C(C)(C)O)CC1` (stereo not drawn) [α-Terpineol, α-α-4-trimethyl-3-cyclohexine-1-methanol], in data set [1], the bacteriostatic/bactericidal nature entry was “bacteriostatic”; the “spectrum of antimicrobial activity” value is “broad spectrum antimicrobial activity against gram-positive bacteria (such as staphylococci and Enterococcus species), gram-negative bacteria (such as Escherichia coli and Pseudomonas aeruginosa) and Candida species”.
On to `CCOc1ccc2ccccc2c1C(=O)N[C@@H]1C(=O)N2[C@@H]1SC(C)(C)[C@@H]2C(=O)O` [Nafcillin], for which the “spectrum of antimicrobial activity” value in [1] was “effective against both penicillin-G-sensitive and penicillin-G-resistant strains of Staphylococcus aureus as well as against pneumococcus, beta-hemolytic streptococcus, and alpha streptococcus”.
Turning to `Cc1ccc(C(C)C)c(O)c1` [Thymol, 5-methyl-2 isopropyl phenol], in [1], the bacteriostatic/bactericidal nature entry was “bacteriostatic”; the “spectrum of antimicrobial activity” value was “broad spectrum antimicrobial activity against gram-positive bacteria (such as staphylococci and Enterococcus species), gram-negative bacteria (such as Escherichia coli and Pseudomonas aeruginosa) and Candida species”.
Regarding `CN(C)c1ccc(O)c2c1C[C@H]1C[C@H]3[C@H](N(C)C)C(O)=C(C(N)=O)C(=O)[C@@]3(O)C(O)=C1C2=O` [Minocycline], in data set [1], the bacteriostatic/bactericidal nature entry was “primarily bacteriostatic”; the “spectrum of antimicrobial activity” value was “active against a wide range of gram-negative and gram-positive organisms”. Further, in the data set on protein synthesis, the “inhibition of protein synthesis” value is listed as “inhibiting protein synthesis”.
Regarding `CC[C@H]1OC(=O)[C@H](C)[C@@H](O[C@H]2C[C@@](C)(OC)[C@@H](O)[C@H](C)O2)[C@H](C)[C@@H](O[C@@H]2O[C@H](C)C[C@H](N(C)C)[C@H]2O)[C@](C)(O)C[C@@H](C)C(=O)[C@H](C)[C@@H](O)[C@]1(C)O` [Erythromycin], in data set [1], the “spectrum of antimicrobial activity” value was “active against a variety of gram-positive and gram-negative bacteria”. Further, the “inhibition of protein synthesis” value in the data set with protein synthesis was “inhibition of protein synthesis without affecting nucleic acid synthesis”.
`Oc1c(Cl)cc(Cl)c(Cl)c1Cc1c(O)c(Cl)cc(Cl)c1Cl` [Hexachlorophene]: in data set [1], the bacteriostatic/bactericidal nature entry is recorded as “bacteriostatic”; the “spectrum of antimicrobial activity” value was “active against staphylococci and other gram-positive bacteria”. Also, in data set [3], the “solubility in organic solvents” value is recorded as “soluble”. Besides, in data set [3] (water), the solubility in water result is listed as “soluble”.
Turning to `[H]/N=C(\N/C(=N/[H])NCCCCCCNC(=N)NC(=N)Nc1ccc(Cl)cc1)Nc1ccc(Cl)cc1` [Chlorhexidine], the bacteriostatic/bactericidal nature entry in [1] was “very rapid bactericidal activity”. The “spectrum of antimicrobial activity” value in data set [1] was “broad range of microorganisms, including gram-positive bacteria (such as staphylococci, Enterococcus species), gram-negative bacteria (such as Escherichia coli and Pseudomonas aeruginosa) and Candida species”. Moreover, the “effect of organic matter on effectiveness” value in data set [1] is “not affected by the presence of organic matter”. The values for the Zones of inhibition in the data set on Candida albicans [2], in the data set on Pseud. aeruginosa and with Staph. epidermidis were 26 m.m, 20 m.m and 22 m.m, respectively.
In the case of `Cn1sccc1=O` [Methylisothiazolone, 2-Methylisothiazolone Hydrochloride], the MIC was 80 µg/mL in the data set with Staphylococcus aureus, 40 µg/mL with Escherichia coli, 80 µg/mL with Pseudomonas aeruginosa and 320 µg/mL with Candida albicans [4]. The bacteriostatic/bactericidal nature result in data set [1] was “bacteriostatic”. Besides, in data set [1], the “spectrum of antimicrobial activity” value is given as “broad spectrum antimicrobial activity”. For the same compound, the photosensitivity entry in data set [5] is on record as “photosensitive”. The “solubility in acetic acid” value in data set [3] (acetic acid (rifampin: acetic aqueous solutions)) is recorded as “not soluble”. The “solubility in formic acid” value in data set [3] (formic acid) is recorded as “soluble”. Besides, the “solubility in organic solvents” value in data set [3] is “soluble”.
Turning to `CO[C@H]1/C=C/O[C@@]2(C)Oc3c(C)c(O)c4c(O)c(c(/C=N/N5CCN(C)CC5)c(O)c4c3C2=O)NC(=O)/C(C)=C\C=C\[C@H](C)[C@H](O)[C@@H](C)[C@@H](O)[C@@H](C)[C@H](OC(C)=O)[C@@H]1C` [Rifampin], in data set [1], the bacteriostatic/bactericidal nature result is recorded as “bactericidal”; the “spectrum of antimicrobial activity” value was “broad spectrum activity against a wide range of gram-positive and gram-negative bacteria”. Also, the “inhibition of bacterial DNA-dependent RNA polymerase” value in data set [6] was “inhibits bacterial DNA-dependent RNA polymerase activity”.
